# Results published in ChEMBL document CHEMBL1201862, “PubChem BioAssay data set” (2004).
# Activity calls are given as the source filed them.
# Assays:
# [1] = Intein inhibitors as potential Tuberculosis drugs, a cytotoxicity screen. [Related pubchem assays (depositor defined):AID2221, AID2223, AID434968, AID435010, AID449749, AID449750, AID489010]; type: functional
# [2] = target: T1, Protein RecA (Mycobacterium tuberculosis, UniProt P9WHJ3); experiment: Fluorescence Cell-Free Homogeneous Dose Retest to Identify Inhibitors of RecA-Intein Splicing Activity. [Related pubchem assays (depositor defined):AID2097, AID2223, AID489010, AID492950]; type: functional
# T1 sequence (P9WHJ3 whole entry): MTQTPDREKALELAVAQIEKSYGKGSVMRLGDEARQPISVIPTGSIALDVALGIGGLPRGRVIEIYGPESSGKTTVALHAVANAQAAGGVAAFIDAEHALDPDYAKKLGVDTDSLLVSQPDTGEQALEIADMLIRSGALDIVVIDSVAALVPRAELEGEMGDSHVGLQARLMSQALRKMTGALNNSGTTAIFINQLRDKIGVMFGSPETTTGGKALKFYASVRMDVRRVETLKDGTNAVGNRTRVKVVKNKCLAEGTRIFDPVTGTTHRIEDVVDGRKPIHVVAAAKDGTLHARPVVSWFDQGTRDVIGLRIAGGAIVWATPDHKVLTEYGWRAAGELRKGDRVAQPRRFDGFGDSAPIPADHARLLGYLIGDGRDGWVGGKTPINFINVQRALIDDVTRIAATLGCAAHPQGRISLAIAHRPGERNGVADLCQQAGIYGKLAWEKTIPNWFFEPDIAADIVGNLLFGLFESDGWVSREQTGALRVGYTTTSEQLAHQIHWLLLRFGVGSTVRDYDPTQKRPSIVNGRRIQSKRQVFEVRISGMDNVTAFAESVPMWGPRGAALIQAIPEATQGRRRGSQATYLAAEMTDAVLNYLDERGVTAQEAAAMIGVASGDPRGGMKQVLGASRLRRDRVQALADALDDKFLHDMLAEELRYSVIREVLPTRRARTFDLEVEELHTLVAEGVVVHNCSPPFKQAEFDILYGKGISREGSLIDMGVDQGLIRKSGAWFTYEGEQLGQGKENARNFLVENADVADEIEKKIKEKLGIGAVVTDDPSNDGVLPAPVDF
# [3] = general cell-killing toxicity readout – plate reader, dry powder samples, cytotoxicity control for PAX8 inhibitor project, dose response (AID 743021); type: functional, cell-based
# [4] = tested on: BJ; experiment: cells; type: functional, cell-based; details: Homo sapiens
# [5] = viability of HCT116 lacking mutant beta-catenin – cell-based, human colon tumor, dose response (AID 1045); type: functional;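 further: HCT116 colon tumor cells with beta catenin knocked out; cells exposed to compound for 60 hours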
# [6] = target: Paired box protein Pax-8 (Homo sapiens, UniProt Q06710); experiment: PAX8 transcriptional activity inhibition in RMG-I – RMG-I cells, luciferase, cherry-pick, dose response (AID 687027); type: functional, cell-based;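 further: luciferase reporter driven by Pax8 target thyroperoxidase promoter measured by SteadyGlo luminescence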
# [7] = target: T2, Replicative DNA helicase DnaB (Mycobacterium tuberculosis, UniProt P9WMR3); experiment: DnaB intein splicing inhibitors, dose response, biochemical, cell-free fluorescence (AID 449749); type: functional
# T2 sequence (P9WMR3 whole entry): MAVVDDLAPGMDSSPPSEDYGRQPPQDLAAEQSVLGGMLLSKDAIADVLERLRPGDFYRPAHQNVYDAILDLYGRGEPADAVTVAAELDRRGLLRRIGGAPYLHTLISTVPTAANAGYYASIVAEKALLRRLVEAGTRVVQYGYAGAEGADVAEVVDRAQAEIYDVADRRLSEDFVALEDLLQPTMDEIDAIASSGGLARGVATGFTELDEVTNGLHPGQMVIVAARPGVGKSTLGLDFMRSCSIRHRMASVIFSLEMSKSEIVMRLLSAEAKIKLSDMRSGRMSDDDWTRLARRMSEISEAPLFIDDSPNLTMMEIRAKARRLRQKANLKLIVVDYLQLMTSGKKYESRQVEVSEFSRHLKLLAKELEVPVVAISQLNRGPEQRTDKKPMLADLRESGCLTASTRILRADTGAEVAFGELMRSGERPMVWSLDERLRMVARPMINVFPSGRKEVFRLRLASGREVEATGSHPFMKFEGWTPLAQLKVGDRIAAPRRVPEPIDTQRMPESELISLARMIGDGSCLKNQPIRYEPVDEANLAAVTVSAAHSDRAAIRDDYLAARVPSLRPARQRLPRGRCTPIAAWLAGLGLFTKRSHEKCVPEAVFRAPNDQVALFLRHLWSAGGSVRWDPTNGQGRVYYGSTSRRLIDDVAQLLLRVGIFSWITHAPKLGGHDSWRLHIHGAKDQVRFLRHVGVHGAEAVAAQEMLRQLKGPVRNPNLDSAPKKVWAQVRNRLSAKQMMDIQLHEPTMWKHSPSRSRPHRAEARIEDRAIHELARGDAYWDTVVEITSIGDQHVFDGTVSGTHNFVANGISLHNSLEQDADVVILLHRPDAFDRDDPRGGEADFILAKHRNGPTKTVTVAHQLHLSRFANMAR
# [8] = tested on: BJ; experiment: growth inhibition of engineered Ras-driven BJ cells – cell-based, alamar blue fluorescence, cherrypicked samples, dose response (AID 2631); type: functional; details: Homo sapiens;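 further: confirmatory dose-response assay in RAS-dependent BJ fibroblasts engineered with TERT, LT and ST, with cytotoxicity read by fluorescence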
# [9] = viability of PTEN-deleted HCT116 cells – cell-based, HCT116 PTEN knockout, dose response (AID 1047); type: functional;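 further: HCT116 colon tumor cells with PTEN knocked out; cells exposed to compound for 60 hours before readout; potency for loss of cell viability measured by luminescence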
# [10] = tested on: BJ; experiment: BJ-TERT fibroblast viability loss – cell-based, RAS-independent, luminescence, dose response (AID 1933); type: functional; details: Homo sapiens
# [11] = DRD fibroblast viability loss – cell-based, non-viral oncogenic, luminescence, dose response (AID 1934); type: functional; details: Homo sapiens
# [12] = tested on: BJ; experiment: BJ-TERT-LT-ST fibroblast viability loss – cell-based, RAS-independent, luminescence, dose response (AID 1935); type: functional; details: Homo sapiens;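 further: BJ fibroblasts immortalized with TERT plus LT and ST oncogenes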
# [13] = target: Intestinal-type alkaline phosphatase (Mus musculus, UniProt P24822); experiment: PubChem AID 488875; type: functional
# [14] = viability of uninfected HEp-2 cells – cell-based, HTS, cytotoxicity control for RSV inhibitor project, dose response (AID 2410); type: functional; details: human respiratory syncytial virus
# [15] = target: T3, Intestinal-type alkaline phosphatase (Homo sapiens, UniProt P09923); experiment: human intestinal alkaline phosphatase activators, dose response, biochemical, luminescence, uHTS hits (AID 463120); type: functional
# [16] = target: T4, Alkaline phosphatase, tissue-nonspecific isozyme (Homo sapiens, UniProt P05186); experiment: activation of tissue-nonspecific alkaline phosphatase – biochemical, TNAP isozyme, human IAP uHTS hits, selectivity assay for human IAP activator project, dose response (AID 488886); type: functional;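 further: potency of compounds raising TNAP activity as a selectivity check on IAP activators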
# T4 sequence (P05186 whole entry): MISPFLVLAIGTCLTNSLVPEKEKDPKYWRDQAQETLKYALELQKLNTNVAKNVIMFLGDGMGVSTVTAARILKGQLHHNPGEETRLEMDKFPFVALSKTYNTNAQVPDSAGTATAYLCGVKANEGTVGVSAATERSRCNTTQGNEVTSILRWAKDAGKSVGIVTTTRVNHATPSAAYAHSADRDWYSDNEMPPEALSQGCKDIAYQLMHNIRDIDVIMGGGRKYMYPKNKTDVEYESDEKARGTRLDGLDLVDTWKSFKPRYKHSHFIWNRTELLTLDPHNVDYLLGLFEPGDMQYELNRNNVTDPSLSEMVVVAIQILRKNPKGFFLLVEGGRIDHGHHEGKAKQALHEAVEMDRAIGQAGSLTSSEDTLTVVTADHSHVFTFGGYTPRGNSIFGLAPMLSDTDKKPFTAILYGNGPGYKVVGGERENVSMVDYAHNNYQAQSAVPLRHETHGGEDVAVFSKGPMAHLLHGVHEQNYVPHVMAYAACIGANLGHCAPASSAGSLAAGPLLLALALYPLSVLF
# [17] = target: T3, Intestinal-type alkaline phosphatase; experiment: activation of human intestinal alkaline phosphatase – biochemical, luminescent, uHTS hits, set 2, dose response (AID 488817); type: functional;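 further: potency of activators that raise enzyme activity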
# [18] = target: T5, Voltage-gated N-type calcium channel alpha-1B subunit/Amyloid beta A4 precursor protein-binding family A member 1 (Homo sapiens, UniProt Q00975+Q02410); type: protein assay
# [19] = target: T5, Voltage-gated N-type calcium channel alpha-1B subunit/Amyloid beta A4 precursor protein-binding family A member 1; type: protein assay; remark: listed apart in the source
# [20] = tested on: H9c2; experiment: cells; type: functional, cell-based; details: Rattus norvegicus, H9c2, Myocardium;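 further: confirmatory concentration-response retest of ultra-high-throughput screening hits for modulation of myocardial damage; cell death induced by hydrogen peroxide oxidative stress; compound pretreatment for 60 min then peroxide exposure for 2 h; potency is for protecting the cells against peroxide damage rather than for killing them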
# [21] = target: T6, Type-1 angiotensin II receptor (Homo sapiens, UniProt P30556); experiment: agonist activity at AGTR1 – cell-based, uHTS hits, selectivity assay for APJ receptor agonist project, dose response (AID 488865); type: functional;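 further: beta-arrestin recruitment to AT1 measured by enzyme fragment complementation luminescence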
# T6 sequence (P30556 whole entry): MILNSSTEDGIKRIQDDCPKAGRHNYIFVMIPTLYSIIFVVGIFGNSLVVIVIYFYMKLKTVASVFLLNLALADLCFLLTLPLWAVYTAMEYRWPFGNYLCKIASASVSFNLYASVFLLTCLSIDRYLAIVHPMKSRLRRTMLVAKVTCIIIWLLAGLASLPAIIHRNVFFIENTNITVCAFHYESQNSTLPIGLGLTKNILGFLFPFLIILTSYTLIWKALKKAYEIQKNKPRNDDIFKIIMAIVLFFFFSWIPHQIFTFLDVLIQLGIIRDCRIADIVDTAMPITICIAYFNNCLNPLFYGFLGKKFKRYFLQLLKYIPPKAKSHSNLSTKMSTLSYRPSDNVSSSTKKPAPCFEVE
# [22] = target: T7, Polyadenylate-binding protein 1 (Homo sapiens, UniProt P11940); experiment: MLLE binding blockers, Cy5 peptide tracer – biochemical, fluorescence polarization, Cy5-PAM2 peptide, secondary, miRNA deadenylation inhibitor project, dose response (AID 602260); type: functional; details: read-out: IC50_Mean
# [23] = target: T8, Caspase-3 (Homo sapiens, UniProt P42574); experiment: activation of caspase-3 zymogen – biochemical, absorbance, dose response (AID 489014)
# T8 sequence (P42574 whole entry): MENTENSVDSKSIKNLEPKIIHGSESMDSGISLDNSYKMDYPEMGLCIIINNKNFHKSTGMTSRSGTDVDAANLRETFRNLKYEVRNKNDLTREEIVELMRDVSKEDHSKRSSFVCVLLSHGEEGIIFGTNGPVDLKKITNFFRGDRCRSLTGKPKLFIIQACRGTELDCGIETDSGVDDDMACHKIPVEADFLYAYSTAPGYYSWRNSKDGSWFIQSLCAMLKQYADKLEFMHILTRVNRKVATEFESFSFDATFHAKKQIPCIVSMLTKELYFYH
# [24] = target: T7, Polyadenylate-binding protein 1; experiment: MLLE domain peptide-binding blockers, IC50 – biochemical, fluorescence polarization, FITC-PAM2 peptide, dose response (AID 602259); type: functional; details: read-out: IC50_Mean
# [25] = cells; type: functional
# [26] = target: Caspase-7 (Homo sapiens, UniProt P55210); experiment: activation of caspase-7 zymogen – biochemical, absorbance, counter-screen for procaspase-3 activator project, dose response (AID 489013)
# [27] = target: G-protein coupled receptor 55 (Homo sapiens, UniProt Q9Y2T6); experiment: inhibition of LPI-stimulated GPR55 beta-arrestin translocation – imaging, U2OS, beta-arrestin-GFP, LPI agonist, primary screen (AID 2013); type: functional;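 further: antagonist potency measured as reduced agonist-driven arrestin aggregation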
# [28] = target: Delta-type opioid receptor (Homo sapiens, UniProt P41143); experiment: SAR Analysis of Antagonists of the DOR Receptor using an Image-Based Assay - Set 3. [Related pubchem assays (depositor defined):AID1777, AID1785]; type: functional;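 further: U2OS cells expressing DOR1 and beta-arrestin GFP stimulated with 100 nM SNC80; imaging of GFP-tagged beta-arrestin moving into spots after receptor activation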
# [29] = target: Mu-type opioid receptor (Homo sapiens, UniProt P35372); experiment: SAR Analysis of Antagonists of the MOR Receptor using an Image-Based Assay - Set 3. [Related pubchem assays (depositor defined):AID1777, AID1785, AID1786, AID1966, AID2133, AID2136, AID2284, AID2285, AID2420]; type: functional
# [30] = target: T9, Kappa-type opioid receptor (Homo sapiens, UniProt P41145); experiment: SAR analysis of small molecule antagonists of the kappa opioid receptor via a luminescent beta-arrestin assay - Set 3. [Related pubchem assays (depositor defined):AID1777, AID1778, AID1785, AID1786, AID1966, AID2133, AID2136, AID2285, AID2495]; type: functional
# [31] = target: T9, Kappa-type opioid receptor; experiment: SAR analysis of Antagonists of the Kappa Opioid Receptor (KOR) using an Image-Based Assay - Set 4. [Related pubchem assays (depositor defined):AID1777, AID1785]; type: functional
# T3 sequence (P09923 whole entry): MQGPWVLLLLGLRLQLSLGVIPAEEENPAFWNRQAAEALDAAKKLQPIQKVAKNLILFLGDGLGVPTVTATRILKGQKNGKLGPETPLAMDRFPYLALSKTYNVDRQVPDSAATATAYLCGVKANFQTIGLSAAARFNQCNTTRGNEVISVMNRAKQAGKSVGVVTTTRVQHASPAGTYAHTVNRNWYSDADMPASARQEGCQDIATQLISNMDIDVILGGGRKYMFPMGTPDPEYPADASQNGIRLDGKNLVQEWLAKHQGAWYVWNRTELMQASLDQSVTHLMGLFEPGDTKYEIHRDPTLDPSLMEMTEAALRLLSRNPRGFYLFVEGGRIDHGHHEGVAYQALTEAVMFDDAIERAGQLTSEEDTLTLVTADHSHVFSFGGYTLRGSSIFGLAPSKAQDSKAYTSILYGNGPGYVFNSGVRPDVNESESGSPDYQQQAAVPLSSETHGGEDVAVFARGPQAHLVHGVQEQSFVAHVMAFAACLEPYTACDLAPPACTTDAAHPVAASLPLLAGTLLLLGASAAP
# T5 sequence (Q00975 whole entry): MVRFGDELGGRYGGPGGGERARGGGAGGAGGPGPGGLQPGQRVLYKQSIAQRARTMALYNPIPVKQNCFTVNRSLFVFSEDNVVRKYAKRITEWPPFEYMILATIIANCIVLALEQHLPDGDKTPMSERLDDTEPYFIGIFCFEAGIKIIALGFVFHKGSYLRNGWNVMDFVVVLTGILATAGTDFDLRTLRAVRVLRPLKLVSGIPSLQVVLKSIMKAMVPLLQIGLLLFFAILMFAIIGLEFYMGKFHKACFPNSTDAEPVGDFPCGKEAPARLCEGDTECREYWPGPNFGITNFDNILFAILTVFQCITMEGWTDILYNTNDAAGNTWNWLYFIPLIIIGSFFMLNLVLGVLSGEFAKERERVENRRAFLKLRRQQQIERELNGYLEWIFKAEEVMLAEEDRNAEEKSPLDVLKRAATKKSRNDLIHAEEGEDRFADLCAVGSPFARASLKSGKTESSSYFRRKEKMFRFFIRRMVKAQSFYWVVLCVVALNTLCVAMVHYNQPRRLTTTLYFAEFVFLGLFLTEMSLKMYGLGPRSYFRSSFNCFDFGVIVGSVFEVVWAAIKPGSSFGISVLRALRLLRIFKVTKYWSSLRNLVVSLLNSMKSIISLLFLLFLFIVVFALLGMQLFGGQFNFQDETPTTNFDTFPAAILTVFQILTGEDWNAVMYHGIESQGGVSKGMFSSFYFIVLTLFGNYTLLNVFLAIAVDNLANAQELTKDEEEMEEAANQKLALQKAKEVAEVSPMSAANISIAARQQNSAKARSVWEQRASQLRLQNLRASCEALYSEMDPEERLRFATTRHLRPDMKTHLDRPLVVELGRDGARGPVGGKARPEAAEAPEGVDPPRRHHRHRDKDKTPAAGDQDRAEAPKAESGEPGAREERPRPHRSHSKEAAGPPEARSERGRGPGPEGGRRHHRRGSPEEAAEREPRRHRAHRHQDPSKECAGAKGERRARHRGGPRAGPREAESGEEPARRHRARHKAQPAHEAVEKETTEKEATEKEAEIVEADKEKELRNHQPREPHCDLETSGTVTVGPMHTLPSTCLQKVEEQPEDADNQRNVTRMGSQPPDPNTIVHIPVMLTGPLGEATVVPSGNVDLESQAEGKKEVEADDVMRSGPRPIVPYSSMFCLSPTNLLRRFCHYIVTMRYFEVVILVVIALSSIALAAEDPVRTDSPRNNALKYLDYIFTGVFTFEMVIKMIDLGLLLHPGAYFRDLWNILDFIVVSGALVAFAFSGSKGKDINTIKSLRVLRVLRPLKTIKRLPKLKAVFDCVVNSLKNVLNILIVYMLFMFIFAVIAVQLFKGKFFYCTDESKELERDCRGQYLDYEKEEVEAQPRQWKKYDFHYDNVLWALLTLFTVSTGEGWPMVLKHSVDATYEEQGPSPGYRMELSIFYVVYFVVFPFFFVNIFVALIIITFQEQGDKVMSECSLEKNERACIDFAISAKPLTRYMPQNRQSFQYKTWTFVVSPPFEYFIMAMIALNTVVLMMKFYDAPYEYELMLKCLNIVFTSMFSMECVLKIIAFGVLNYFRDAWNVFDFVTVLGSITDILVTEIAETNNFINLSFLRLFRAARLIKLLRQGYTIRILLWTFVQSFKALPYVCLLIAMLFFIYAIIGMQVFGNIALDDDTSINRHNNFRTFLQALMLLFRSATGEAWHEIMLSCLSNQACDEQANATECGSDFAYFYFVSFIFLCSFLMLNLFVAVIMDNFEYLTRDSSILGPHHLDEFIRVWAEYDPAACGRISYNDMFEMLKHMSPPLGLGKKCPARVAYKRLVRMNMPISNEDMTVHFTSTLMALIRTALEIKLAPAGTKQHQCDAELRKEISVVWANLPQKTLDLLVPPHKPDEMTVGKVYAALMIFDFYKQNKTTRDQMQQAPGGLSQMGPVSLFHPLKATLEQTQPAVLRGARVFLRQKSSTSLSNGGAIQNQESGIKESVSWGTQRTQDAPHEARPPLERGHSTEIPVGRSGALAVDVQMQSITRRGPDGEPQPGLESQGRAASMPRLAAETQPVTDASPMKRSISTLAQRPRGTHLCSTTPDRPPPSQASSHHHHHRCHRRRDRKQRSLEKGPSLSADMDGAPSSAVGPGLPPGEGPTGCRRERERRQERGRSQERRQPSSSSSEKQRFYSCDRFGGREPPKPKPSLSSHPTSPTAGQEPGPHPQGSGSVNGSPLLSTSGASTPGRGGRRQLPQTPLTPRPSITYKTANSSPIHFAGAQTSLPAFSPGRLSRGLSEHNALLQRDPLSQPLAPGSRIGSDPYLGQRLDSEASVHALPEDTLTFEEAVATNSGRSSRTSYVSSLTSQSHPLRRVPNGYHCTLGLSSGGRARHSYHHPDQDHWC
# T5 sequence (Q02410 whole entry): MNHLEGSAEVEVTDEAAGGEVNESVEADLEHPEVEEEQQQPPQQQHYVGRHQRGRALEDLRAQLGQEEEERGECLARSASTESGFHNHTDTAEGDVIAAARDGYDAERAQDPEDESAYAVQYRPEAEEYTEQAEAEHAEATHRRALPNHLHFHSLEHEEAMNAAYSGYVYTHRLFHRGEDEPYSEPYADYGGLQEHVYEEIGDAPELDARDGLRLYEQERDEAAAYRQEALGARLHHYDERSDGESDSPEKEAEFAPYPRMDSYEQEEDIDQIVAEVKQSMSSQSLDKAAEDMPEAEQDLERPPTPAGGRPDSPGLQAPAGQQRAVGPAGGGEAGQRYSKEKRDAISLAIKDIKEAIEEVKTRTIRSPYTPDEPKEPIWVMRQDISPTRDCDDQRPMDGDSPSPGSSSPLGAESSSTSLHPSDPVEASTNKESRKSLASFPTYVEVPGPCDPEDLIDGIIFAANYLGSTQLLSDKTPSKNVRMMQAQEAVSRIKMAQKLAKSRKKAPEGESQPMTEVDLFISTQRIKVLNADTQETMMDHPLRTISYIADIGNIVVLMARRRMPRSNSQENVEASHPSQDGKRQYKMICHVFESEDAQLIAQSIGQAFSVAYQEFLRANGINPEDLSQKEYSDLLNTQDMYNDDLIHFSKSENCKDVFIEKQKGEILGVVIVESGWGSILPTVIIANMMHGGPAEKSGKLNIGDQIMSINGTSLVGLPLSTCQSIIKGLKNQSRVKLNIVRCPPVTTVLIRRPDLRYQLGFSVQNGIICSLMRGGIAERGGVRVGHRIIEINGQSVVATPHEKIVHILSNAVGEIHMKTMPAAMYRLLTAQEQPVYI
# T9 sequence (P41145 whole entry): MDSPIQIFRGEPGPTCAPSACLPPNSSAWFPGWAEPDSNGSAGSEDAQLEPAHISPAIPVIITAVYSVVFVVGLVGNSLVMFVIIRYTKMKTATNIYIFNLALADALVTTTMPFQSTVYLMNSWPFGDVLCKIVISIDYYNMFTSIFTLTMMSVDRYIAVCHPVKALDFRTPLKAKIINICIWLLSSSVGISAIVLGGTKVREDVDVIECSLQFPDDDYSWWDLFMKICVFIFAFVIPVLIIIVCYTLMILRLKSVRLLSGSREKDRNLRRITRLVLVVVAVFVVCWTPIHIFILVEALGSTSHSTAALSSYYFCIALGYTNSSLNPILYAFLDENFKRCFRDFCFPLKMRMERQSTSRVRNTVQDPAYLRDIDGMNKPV
# T7 sequence (P11940 whole entry): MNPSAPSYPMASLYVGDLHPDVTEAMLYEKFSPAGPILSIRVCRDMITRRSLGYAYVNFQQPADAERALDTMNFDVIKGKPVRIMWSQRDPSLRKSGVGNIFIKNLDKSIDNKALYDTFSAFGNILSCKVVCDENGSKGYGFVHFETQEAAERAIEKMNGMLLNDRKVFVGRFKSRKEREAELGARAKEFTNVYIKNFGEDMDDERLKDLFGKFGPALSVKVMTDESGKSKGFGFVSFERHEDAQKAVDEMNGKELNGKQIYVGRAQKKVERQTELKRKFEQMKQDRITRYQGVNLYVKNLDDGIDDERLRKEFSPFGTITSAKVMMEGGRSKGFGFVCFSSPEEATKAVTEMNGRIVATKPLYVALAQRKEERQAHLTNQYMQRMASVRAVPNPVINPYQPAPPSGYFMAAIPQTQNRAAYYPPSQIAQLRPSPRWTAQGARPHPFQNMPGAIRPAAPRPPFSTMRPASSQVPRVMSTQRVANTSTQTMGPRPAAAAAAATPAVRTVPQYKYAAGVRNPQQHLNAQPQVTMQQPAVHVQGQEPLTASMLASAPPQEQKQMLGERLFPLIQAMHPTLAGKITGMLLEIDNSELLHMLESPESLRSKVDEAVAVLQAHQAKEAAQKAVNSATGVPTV
# Chain of G-protein coupled receptor 55 (Q9Y2T6 whole entry): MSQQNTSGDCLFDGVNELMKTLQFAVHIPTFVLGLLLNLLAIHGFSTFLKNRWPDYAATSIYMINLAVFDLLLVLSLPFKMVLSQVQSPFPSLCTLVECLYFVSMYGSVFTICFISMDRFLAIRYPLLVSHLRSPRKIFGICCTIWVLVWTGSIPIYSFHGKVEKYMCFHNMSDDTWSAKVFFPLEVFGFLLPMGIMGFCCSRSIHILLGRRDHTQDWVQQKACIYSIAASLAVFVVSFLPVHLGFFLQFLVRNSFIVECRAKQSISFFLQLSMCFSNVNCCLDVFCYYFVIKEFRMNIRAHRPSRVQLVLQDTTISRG
smiles,measurement,setting,value
COc1ccc(N(C(=O)CCl)C(C(=O)NCCc2ccccc2)c2cccs2)cc1 (stereo unspecified),CC50,[1],0.43 µM (active)
same,EC50,[2],0.327 µM (active)
same,AC50,[3],4.64 µM (active)
same,EC50,[4],2.97 µM (inconclusive)
same,EC50,[5],0.986 µM (active)
same,AC50,[6],2.44 µM (active)
same,AC50,[7],2.64 µM (active)
same,EC50,[8],2.69 µM (active)
same,EC50,[9],1.1 µM (active)
same,EC50,[10],1.22 µM (active)
same,EC50,[11],2.62 µM (active)
same,EC50,[12],4.61 µM (active)
COc1ccccc1CCNC(=O)C1CCN(c2nnc(C)c3c(C)n(-c4ccc(C)cc4)nc23)CC1,EC50,[13],> 100 µM (inactive)
same,CC50,[14],17.4 µM (active)
same,EC50,[15],23.1 µM (active)
same,EC50,[16],53.2 µM (active)
same,EC50,[17],65.5 µM (active)
CC(=O)c1cccc(NC(=O)c2cc(-c3ccc(C)cc3)on2)c1,IC50,[18],> 50 µM (inactive)
same,IC50,[19],15.5 µM (active)
CCOc1ccc2nc(O)c(CN(Cc3ccco3)C(CC)c3nnnn3Cc3ccccc3)cc2c1 (stereo unspecified),IC50,[20],> 79 µM (inactive)
same,EC50,[21],> 100 µM (inactive)
COc1ccc(C2=NC(=O)/C(=C\c3cc(OC)c(OC)c(OC)c3)O2)cc1,IC50,[22],> 66 µM (inactive)
same,EC50,[23],0.42 µM (active)
same,IC50,[24],> 66 µM (inactive)
same,IC50,[25],1.18 µM (active)
same,EC50,[26],> 85.2 µM (inactive)
Nc1ncc(-c2nnnn2-c2ccc(Cl)cc2)c(-c2ccc(Cl)cc2)n1,IC50,[27],4.61 µM (active)
COc1ccc(N2CCN(CCCNC(=O)Cn3c(=O)c4cccn4c4cc(Br)cnc43)CC2)cc1,IC50,[28],> 32 µM (inactive)
same,IC50,[29],10.3 µM (inactive)
same,IC50,[30],3.05 µM (active)
same,IC50,[31],0.693 µM (active)
